# From patent US10827753B2, “Compositions and methods for controlling nematodes” (Monsanto Technology LLC, priority 2007, dated 2020)
# Like-named read-outs stand apart in the source and are kept apart here. Marks after values point to notes of the source that are not given here.
# Columns and labels:
# root knot nematode (RKN) = assay: RKN greenhouse soil assay on cucumber plants; assay type: in vivo, Meloidogyne incognita
# Outline: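 Cucumber in sandy soil in pots drenched with 5 ml compound solution (acetone in 0.05% Triton X 100; 1 mg per four pots = 1 kg/ha), 7 days or 0 days before inoculation. Root knot nematode eggs applied ≥4 h after treatment; galling rated 14 days after inoculation, four replicates.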
# Meloidogyne incognita = assay: M. incognita miniaturized greenhouse assay on cucumber seedlings (root galling); assay type: in vivo; set-up: key to 1 ppm gall ratings / 1 ppm gall rating: mean of 3 gall ratings: 0=0-5%, 1=6-20%, 2=21-50%, 3=51-100% root galled; conditions: for 8 ppm gall ratings: average of triplicate gall rating, scale 0-3 (% root mass galled)
# Outline: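 Compound in acetone/Triton X100 stock (5 mg/mL) diluted into water with 0.015% Triton X100 and applied to sand-planted sprouted cucumber seedlings; inoculated with 500 M. incognita eggs two days after planting. Roots harvested 10–12 days later; galling scored 0–3 by % root mass galled, averaged over triplicates, plus visual root phytotoxicity rating.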
# root knot nematode = assay: Pre-plant incorporated (PPI) greenhouse test of root knot nematode on cucumber plants; assay type: in vivo, Meloidogyne incognita; conditions: for pest or weed control at 4000 g/ha / pest or weed control at 8000 g/ha / pest or weed control at 2000 g/ha: Meloidogyne incognita, read-out: percent control (galling reduction) relative to the control blank treatment
# Source text: The PPI test examines the effect of pre-incorporation of compounds in soil and longer aging to simulate in furrow methods of nematicide application in the field. The PPI test exposes compounds to a higher volume of soil and drying which can result in more severe soil binding. Compounds are also aged for longer periods which can lead to more extensive biotic and abiotic degradation further limiting activity.
# The chemically treated soil (sandy soil mix) for all treatment days (e.g., 7 days, 14 days, 21 days) treatments is potted into their appropriate pots. On the same day the 7 day treatment pots are seeded. One week later eggs are applied and 14 days after egg application the test is harvested. The 14 day treatments are planted 7 days after the first planting. The 14 day planting and 7 day inoculation happen on the same day. One week later the 14 day treatments are inoculated with eggs. These are harvested 14 days after the inoculation. The 21 day treatments are planted 14 days after the first planting. The 14 day inoculation and 21 day planting are done on the same day. One week later the 21 day plants are inoculated with eggs. The 7 day treatment is harvested the same day as the 21 day inoculation. Fourteen days after inoculation the 21 day plants are harvested.
# For each compound a stock is prepared using 4 mg material in 4 ml of acetone. The soil is mixed by placing 80 ml of field soil and 320 ml of sand in a plastic bag and mixing well. The formulation for treatment is done by adding 2.13 ml (8 kg/ha rate), 1.06 ml (4 kg/ha rate) or 0.53 ml (2 kg/ha rate) to a vial and raising it with 10 ml in 0.05%×100. Soil is then treated by adding the entire 10 ml to the 400 ml of mix in the bag. The treated soil is immediately mixed well in the sealed bag to distribute the compound evenly. Approximately 95 ml is used to fill each 2-inch square pot up to the top with some soil compression and flattening. For each compound and for the control treatments 4 pots are filled. All pots are watered until moist but with no run-out through the bottom.
# The PPI test simulates 8, 4 and 2 kg/ha rates incorporated 15 cm deep in the field and is equivalent to the 2, 1 and 0.5 kg/ha drench application rates in the standard 2-inch pot cucumber greenhouse assay.
# [1] = 0 day treatment, 0.05 kg/ha, test a
# [2] = 0 day treatment, 0.1 kg/ha, test a
# [3] = 0 day treatment, 0.25 kg/ha, test a
# [4] = 0 day treatment, 1 kg/ha, test b
# [5] = Acetone 1 mg/kg, standard 10% acetone in 0.05% Triton X 100 formulation
# [6] = Radex 1 mg/kg, emulsifiable concentrate, 6.25% active ingredient by weight
# [7] = 24 h, twenty one day pre-plant incorporated, 4 kg/ha rate
# [8] = 24 h, twenty one day pre-plant incorporated, 8 ka/ha rate
# [9] = fourteen day pre-plant incorporated, 2 kg/ha rate, test a
# [10] = fourteen day pre-plant incorporated, 4 kg/ha rate, test a
# [11] = fourteen day pre-plant incorporated, 8 ka/ha rate, test a
# [12] = fourteen day pre-plant incorporated, 4 kg/ha rate, test b
# [13] = fourteen day pre-plant incorporated, 8 ka/ha rate, test b
SMILES,percent control (galling reduction) relative to the control blank treatment (root knot nematode (RKN); [1]),percent control (galling reduction) relative to the control blank treatment (root knot nematode (RKN); [2]),percent control (galling reduction) relative to the control blank treatment (root knot nematode (RKN); [3]) [%],percent control (galling reduction) relative to the control blank treatment (root knot nematode (RKN); [4]),percent control (galling reduction) relative to the appropriate control blank treatment (root knot nematode (RKN); [5]) [%],percent control (galling reduction) relative to the appropriate control blank treatment (root knot nematode (RKN); [6]) [%],1 ppm gall ratings (Meloidogyne incognita; Table 1B test a),1 ppm gall ratings (Meloidogyne incognita; Table 1B test b),1 ppm gall ratings (Meloidogyne incognita; Table 1B test c),1 ppm gall ratings (Meloidogyne incognita; Table 1B test d),1 ppm gall rating (Meloidogyne incognita; Table 1C test a),1 ppm gall rating (Meloidogyne incognita; Table 1C test b),1 ppm gall rating (Meloidogyne incognita; Table 1D test a),8 ppm gall rating (Meloidogyne incognita; Table 1D test a),8 ppm gall ratings (Meloidogyne incognita),pest or weed control at 4000 g/ha (root knot nematode; [7]) [%],pest or weed control at 8000 g/ha (root knot nematode; [8]) [%],pest or weed control at 2000 g/ha (root knot nematode; [9]) [%],pest or weed control at 4000 g/ha (root knot nematode; [10]) [%],pest or weed control at 8000 g/ha (root knot nematode; [11]) [%],other results
c1ccc(-c2noc(-c3cccs3)n2)cc1 [compound 1822],7^a percent,47^a percent,60,81%,94,98,0.33,0.67,0.33,0 (0=0-5%),0 (0=0-5%),0.33,1.33^a,0^a (0=0-5%),0 (0=0-5%),82,95,67,97,100,"percent control (galling reduction) relative to the control blank treatment (root knot nematode (RKN); 0 day treatment, 0.25 kg/ha, test b): 64%; percent control (galling reduction) relative to the control blank treatment (root knot nematode (RKN); 0 day treatment, 1 kg/ha, test a): 89%; percent control (galling reduction) relative to the control blank treatment (root knot nematode (RKN); 7 day treatment, 1 kg/ha, test a): 85%; percent control (galling reduction) relative to the control blank treatment (root knot nematode (RKN); 7 day treatment, 1 kg/ha, test b): 75%; pest or weed control at 4000 g/ha (root knot nematode; 168 h, seven day pre-plant incorporated, 4 kg/ha rate): 99%; pest or weed control at 8000 g/ha (root knot nematode; 168 h, seven day pre-plant incorporated, 8 ka/ha rate): 99%"
"CCOP(=O)(NC(C)C)Oc1ccc(SC)c(C)c1 (stereo not shown) [Fenamiphos, fenamiphos, reference compound]",–,–,–,–,98,99,–,–,"0^c, 0^d, 0^e (0=0-5%)","0^c, 0^d, 0^e (0=0-5%)",–,–,–,–,–,–,–,–,–,–,"1 ppm gall ratings (Meloidogyne incognita; Table 1B test e): 0^c, 0^d, 0^e (0=0-5%); percent control (galling reduction) relative to the control blank treatment (root knot nematode; [9]): 88^a percent; percent control (galling reduction) relative to the control blank treatment (root knot nematode; [10]): 99^a percent; percent control (galling reduction) relative to the control blank treatment (root knot nematode; [12]): 100^b percent; percent control (galling reduction) relative to the control blank treatment (root knot nematode; [11]): 100^a percent; percent control (galling reduction) relative to the control blank treatment (root knot nematode; [13]): 100^b percent; percent control (galling reduction) relative to the control blank treatment (root knot nematode; seven day pre-plant incorporated, 4 kg/ha rate): 96%; percent control (galling reduction) relative to the control blank treatment (root knot nematode; seven day pre-plant incorporated, 8 ka/ha rate): 100%; percent control (galling reduction) relative to the control blank treatment (root knot nematode; twenty one day pre-plant incorporated, 4 kg/ha rate): 84%; percent control (galling reduction) relative to the control blank treatment (root knot nematode; twenty one day pre-plant incorporated, 8 ka/ha rate): 99%"
Brc1ccc(-c2cnc(-c3cccs3)o2)cc1 [compound 4776],–,–,–,— 99^b percent,–,–,1 (1=6-20%),1 (1=6-20%),0.33,0.33,1 (1=6-20%),0.33,0^a (0=0-5%),0^a (0=0-5%),0 (0=0-5%),50,80,–,–,–,1 ppm gall rating (Meloidogyne incognita; Table 1C test c): 1 (1=6-20%)
Cc1cc(Cl)ccc1-c1noc(-c2ccco2)n1 [compound 5823],53%,85%,95,–,–,–,1.67,0.33,–,–,–,–,–,–,–,–,–,85,98,100,"percent control (galling reduction) relative to the control blank treatment (root knot nematode (RKN); 0 day treatment, 0.05 kg/ha, test c): 38%; percent control (galling reduction) relative to the control blank treatment (root knot nematode (RKN); 0 day treatment, 0.1 kg/ha, test c): 91%; percent control (galling reduction) relative to the control blank treatment (root knot nematode (RKN); 0 day treatment, 0.25 kg/ha, test c): 98%; 1 ppm gall ratings (Meloidogyne incognita; Table 1B test e): 0.33; pest or weed control at 4000 g/ha (root knot nematode; [12]): 94%; pest or weed control at 8000 g/ha (root knot nematode; [13]): 100%"
